In patent US6417212B1, “Modulators of peroxisome proliferator activated receptors” (Eli Lilly & Company, priority 1999, dated 2002):

What was measured:
[1] = system: huPPARα; experiment: Cotransfection assay in CV-1 cells, huPPARα (GAL4 chimeric system); assay type: cell-based, human; settings: luciferase reporter, relative to PPARα agonist reference molecule
Experimental: DNA-dependent binding (ABCD binding) was carried out using SPA technology with PPAR receptors. Tritium-labeled PPARγ and PPARα agonists were used as radioligands for generating displacement curves and IC50 values with compounds of the invention. Cotransfection assays were carried out in CV-1 cells. The reporter plasmid contained an acylCoA oxidase (AOX) PPRE and TK promoter upstream of the luciferase reporter cDNA. Appropriate PPARs and RXRα were constitutively expressed using plasmids containing the CMV promoter. For PPARα and PPARβ, interference by endogenous PPARγ in CV-1 cells was an issue. In order to eliminate such interference, a GAL4 chimeric system was used in which the DNA binding domain of the transfected PPAR was replaced by that of GAL4, and the GAL4 response element was utilized in place of the AOX PPRE. Cotransfection efficacy was determined relative to PPARα agonist and […] reference molecules. Efficacies were determined by computer fit to a concentration-response curve, or in some cases at a single high concentration of agonist (10 μM). For binding or cotransfection studies with receptors other than PPARs, similar assays were carried out using appropriate ligands, receptors, reporter constructs, etc., for that particular receptor.
These studies were carried out to evaluate the ability of compounds of the invention to bind to and/or activate various nuclear transcription factors, particularly huPPARα (“hu” indicates “human”) and huPPARγ. These studies provide in vitro data concerning efficacy and selectivity of compounds of the invention. Furthermore, binding and cotransfection data for compounds of the invention were compared with corresponding data for marketed compounds that act on either huPPARα or huPPARγ.

[2] = system: Hu apoAI transgenic mice; experiment: Evaluation of triglyceride and cholesterol levels in Hu apoAI transgenic mice; assay type: in vivo; settings: Mus musculus, 168 h, 30 mg/kg daily oral gavage for 7 days; for change in vivo at 30 mg/kg: pooled sera, read-out: % HDLc Increase (serum, FPLC area under the curve, over vehicle); for inhibition in vivo at 30 mg/kg: serum 3 hours after dosing on day 7, read-out: % Triglyceride Decrease (serum, over mice receiving vehicle)
Experimental: After an acclimation period of 2 weeks, animals were individually identified by ear notches, weighed, and assigned to groups based on body weight. Beginning the following morning, mice were dosed daily by oral gavage for 7 days using a 20 gauge, 11⁄2 curved disposable feeding needle (Popper & Sons). […] Prior to termination on day 7, mice were weighed and dosed. Three hours after dosing, animals were anesthetized by inhalation of isoflurane (2-4%; Abbott Laboratories, Chicago, Ill.) and blood obtained via cardiac puncture (0.7-1.0 ml). Whole blood was transferred to serum separator tubes (Vacutainer SST), chilled on ice, and permitted to clot. Serum was obtained after centrifugation at 4° C. and frozen until analysis for triglycerides, total cholesterol, compound levels, and serum lipoprotein profile by fast protein liquid chromatography (FPLC) coupled to an inline detection system. After sacrifice by cervical dislocation, the liver, heart and epididymal fat pads were excised and weighed. […] The percentage decrease in triglyceride serum levels in mice receiving a compound of the invention over mice receiving vehicle are reported in Table 2. […] The absorbance of the dye produced is linearly related to the analyte in the sample. The assays were further modified in our laboratory for use in a 96 well format. […] An additional aliquot of sample, pipetted to a third well and diluted in 200 μl water, provided a blank for each specimen. […] All samples from an experiment were assayed at the same time to minimize inter-assay variability. Serum lipoproteins were separated and cholesterol quantitated with an in-line detection system. […] The change in voltage corresponding to change in cholesterol concentration was plotted vs time and the area under the curve corresponding to the elution of VLDL, LDL and HDL was calculated using Perkin Elmer Turbochrome software.

[3] = system: db/db mice; experiment: Evaluation of glucose levels in db/db mice; assay type: in vivo; settings: Mus musculus, 168 h; 30 mg/kg daily oral gavage for 7 days; 100% = glucose not different from lean values; read-out: Glucose Normalisation
Experimental: After an acclimation period of 2 weeks, animals were individually identified by ear notches, weighed, and bled via the tail vein for determination of initial glucose levels. Blood was collected (100 μl) from unfasted animals by wrapping each mouse in a towel, cutting the tip of the tail with a scalpel, and milking blood from the tail into a heparinized capillary tube (Fisher) balanced on the edge of the bench. Sample was discharged into a heparinized microtainer with gel separator (VWR) and retained on ice. Plasma was obtained after centrifugation at 4° C. and glucose measured immediately. Remaining plasma was frozen until the completion of the experiment, when glucose and triglycerides were assayed in all samples. Animals were grouped based on initial glucose levels and body weights. Beginning the following morning, mice were dosed daily by oral gavage for 7 days using a 20 gauge, 1½″ curved disposable feeding needle. […] On day 7, mice were weighed and bled (tail vein) 3 hours after dosing. Twenty-four hours after the 7th dose (i.e., day 8), animals were bled again (tail vein). Samples obtained from conscious animals on days 0, 7 and 8 were assayed for glucose. After the 24 hour bleed, animals were weighed and dosed for the final time. Three hours after dosing on day 8, animals were anesthetized by inhalation of isoflurane and blood obtained via cardiac puncture (0.5-0.7 ml). Whole blood was transferred to serum separator tubes, chilled on ice and permitted to clot. Serum was obtained after centrifugation at 4° C. and frozen until analysis for compound levels. After sacrifice by cervical dislocation, the liver, heart and epididymal fat pads were excised and weighed.
The absorbance of the dye produced is linearly related to the analyte in the sample. The assays were further modified in our laboratory for use in a 96 well format. […] An additional aliquot of sample, pipetted to a third well and diluted in 200 μl water, provided a blank for each specimen. […] Sample absorbances were compared to a standard curve (100-800, 10-500, and 100-400 mg/dl for glucose, triglycerides and total cholesterol, respectively). […] All samples from an experiment were assayed at the same time to minimize inter-assay variability.

SMILES	huPPARα CTF Efficacy [1]	change in vivo at 30 mg/kg [2]	inhibition in vivo at 30 mg/kg [2]	inhibition in vivo at 30 mg/kg [3]
Cc1oc(-c2ccc(-c3ccccc3)cc2)nc1CCOc1cccc(OC(C)(C)C(=O)O)c1 [Example 21, 2-{3-[2-(2-Biphenyl-4-yl-5-methyloxazol-4-yl)ethoxy]phenoxy}-2-methylpropionic acid]	92%	204%	60.5%	95%
Cc1oc(-c2ccc(-c3c(F)cccc3F)cc2)nc1CCOc1ccc(OC(C)(C)C(=O)O)cc1 [Example 14, 2-(4-{2-[2-(2′,6′-Difluorobiphenyl-4-yl)-5-methyloxazol-4-yl]-ethoxy}-phenoxy)-2-methylpropionic acid]	90%	66%	67.5%	134%
Cc1sc(-c2cccc(-c3ccccc3)c2)nc1CCOc1ccc(OC(C)(C)C(=O)O)cc1 [Example 46, 2-{4-[2-(2-Biphenyl-3-yl-5-methyl-thiazol-4-yl)-ethoxy]-phenoxy}-2-methyl-propionic acid]	122%	26%	16.4%	29%
